Counter-ions that a name gives are not always drawn. Like-named read-outs stand apart in the source and are kept apart here.
Experiments:
[1] = tested on: dopamine (DA) receptors in the basal ganglia (corpus striatum); test: Stereotyped licking and gnawing behavior rating in the rat; type: in vivo
From the text: Stereotypy: The mean stereotyped licking and gnawing behavioral rating scheme developed by Tarsy and Baldessarini^8 was used. […]
Stereotypy scores were rated for one hour as described in […]

[2] = target: Dopamine Receptors; type: binding, calf; settings: ligand [3H]ADTN (0.5 nM)
[3] = tested on: dopamine (DA) receptors in the limbic system and basal ganglia; test: Total motor activity, electronic activity monitor (EAM); type: in vivo, rat
Description: (§1) Activity: Overall motor activity was measured by use of the self-recording Stoelting electronic activity monitor method described previously by Stewart, Campbell, Sperk, and Baldessarini^9. Total activity is obtained by setting monitor sensitivity so as to detect both locomotion and small movements (such as grooming, sniffing, and chewing) as would be prominent in stereotyped responses that tend to diminish locomotion and increase sniffing, licking, and chewing movements. Locomotor activity is detected selectively by setting monitor sensitivity to detect large, locomotor movements, and to minimize smaller movements already described.
(§2) All data presented in the Tables below are expressed as the mean results from 4-6 rats per condition, ±S.E.M. Stereotypy is expressed in rating units (maximum=3.0) and activity is expressed in arbitrary units of percent change, derived from EAM counts per unit time, relative to activity in control (saline) animals set at zero.
All the posttreatment doses of (+)APO were 3.0 mg/kg, s.c. The data
All posttreatment doses of (+)NPA were 3 mg/kg, s.c. The data are similar

[4] = tested on: DA in the limbic system (nucleus accumbens septi); test: Arousal (locomotor activity) induced by DA injected into nucleus accumbens septi; type: in vivo, rat; settings: for activity counts (arousal induced by 16 μg DA in accumbens): 30 min, DA control 238 ± 38
Description: An experiment shown in Table 9 involves testing the effects of S(+) isomers of apomorphine (APO) and N-propylnorapomorphine (NPA) given systemically (intraperitoneally, ip), as well as S(+) methylenedioxy-N-propylnorapomorphine (MDO-NPA) given ip or orally (po, by orogastric intubation). […]. […] Activity was monitored for 30 min after injection of DA into the brain, which was done at 10 min after systemic dosing with an S(+)aporphine test compound.
Data are mean activity counts ± SEM (N = 6) for rats given DA into the
medial accumbens after pretreatment with an inhibitor of monoamine oxidas
(MA0), and monitored on EAM for 30 min (aporphine given 10 min before DA
systemicallyintraperitoneally [ip] or orally [po].

[5] = target: Dopamine Receptors; type: binding, calf; settings: ligand [3H]APO (0.5 nM)
[6] = tested on: dopamine (DA) receptors in the limbic system; test: Locomotor activity (spontaneous or aroused by (-)APO / (-)NPA), electronic activity monitor; type: in vivo, rat; settings: for Locomotion: Table 5; for effect on locomotor-arousal activity (in words): with or without (-) isomer, Hydrochloride
Description: as §1
Rats (mean N=6 per condition) were tested for locomotor activity for 60 min following a single dose of (-)APO (0.3 mg/kg, SC), or its vehicle ("placebo" condition). The S(+) isomers were administered in a range of doses from 0 or 0.1 to 30 mg/kg, SC immediately following injection of (-)APO or its vehicle. Data are presented in FIG. 2 as mean EAM activity counts per hour SEM. In that figure, the dashed line labeled "control" represents the mean activity of rats given vehicle only and no aporphine (SD values are indicated by parallel light lines above and below the control mean).
Test agents (11substituted-N--propylnoraporphine isomers were given at a
dose of 3 mg/kg, ip (in 2 ml/kg) just prior to (-)apomorphine (APO, at 0.
mg/kg, ip, in 1 ml/kg) to rats (N = 6) tested in an electronic activity

[7] = tested on: DA in the corpus striatum (basal ganglia); test: Head posture (contralateral head deviation) after intrastriatal DA; type: in vivo, rat; settings: intrastriatal DA 16 μg; aporphine 3 mg/kg systemic (route not given)
[8] = Catalepsy (latency to resume normal posture); type: in vivo, rat; settings: s.c., maximum 18.0
Description: Catalepsy: This measure of muscle rigidity is assessed by having animals in abnormal body positions and timing their duration of maintaining these. This is done by placing rats on a wire grid placed at a 45° angle to the benchtop, or by placing their forelimbs on a raised horizontal metal bar, and timing the latency to resume a normal posture by stopwatch.
as §2

[9] = target: T1, rat liver catechol O-methyl-transferase (COMT) (Rattus norvegicus, UniProt P22734); test: Isomeric substrate selectivity for rat liver COMT; type: biochemical
T1 construct: partially purified rat liver catechol O-methyl-transferase (COMT); from tissue; host or cells: rat liver, ammonium sulfate precipitation and dialysis
T1 sequence (P22734 1-221 isoform P22734-2): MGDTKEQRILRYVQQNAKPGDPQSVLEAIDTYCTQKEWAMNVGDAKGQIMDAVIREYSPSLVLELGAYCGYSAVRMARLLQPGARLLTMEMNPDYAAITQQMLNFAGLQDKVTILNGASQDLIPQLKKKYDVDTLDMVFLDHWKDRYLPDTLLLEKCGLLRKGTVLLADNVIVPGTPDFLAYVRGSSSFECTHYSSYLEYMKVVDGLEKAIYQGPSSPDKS

[10] = Table 5, (+)NPA 3 mg/kg s.c. after (-)NPA 0.3 mg/kg
[11] = Table 5, (+)NPA 3 mg/kg s.c. after (-)NPA 3.0 mg/kg
[12] = Table 5, (+)NPA 3 mg/kg s.c., (-)NPA 0

CCCN1CCc2cccc3c2[C@@H]1Cc1ccc(O)c(O)c1-3 [(+)NPA, (S)-N-n-Propylnorapomorphine Hydrochloride]
Stereotyped behavior induced by (-)APO, Percent of Control ([1]; (+)NPA 3 mg/kg IP after (-)APO 0.3 mg/kg IP): 100.0 ± 10.6% of Control | Stereotyped behavior induced by (-)APO, Percent of Control ([1]; (+)NPA 5 mg/kg IP after (-)APO 0.3 mg/kg IP): 100.0 ± 12.3% of Control | Stereotyped behavior induced by (-)APO, Percent of Control ([1]; (+)NPA 30 mg/kg IP after (-)APO 0.3 mg/kg IP): 102.6 ± 8.9% of Control | Stereotypy Score ([1]; Table 1, (+)NPA 5 mg/kg s.c. ± (-)APO 3 mg/kg s.c. (printed first: (+)NPA), maximum 3.0): 2.9 ± 0.1 rating units | Stereotypy Score ([1]; Table 1, (+)NPA 5 mg/kg s.c. ± (-)NPA 3 mg/kg s.c. (printed first: (+)NPA), maximum 3.0): 2.9 ± 0.2 rating units | Stereotypy Score ([1]; Table 1, (+)NPA 5 mg/kg, s.c., ± saline, maximum 3.0): 0.0 ± 0.0 rating units | Stereotypy Score ([1]; Table 1, (-)APO 3 mg/kg s.c. ± (+)NPA 5 mg/kg s.c. (printed first: (-)APO), maximum 3.0): 2.9 ± 0.1 rating units | Stereotypy Score ([1]; Table 1, (-)NPA 3 mg/kg s.c. ± (+)NPA 5 mg/kg s.c. (printed first: (-)NPA), maximum 3.0): 3.0 ± 0.0 rating units | Stereotypy Score ([1]; Table 3, 0.1 mg/kg, s.c., maximum 3.0): 0 rating units | Stereotypy Score ([1]; Table 3, 0.3 mg/kg, s.c., maximum 3.0): 0 rating units | Stereotypy Score ([1]; Table 3, 3.0 mg/kg, s.c., maximum 3.0): 0 rating units | Stereotypy Score ([1]; Table 3, 5.0 mg/kg, s.c., maximum 3.0): 0 rating units | Stereotypy Score [1, 10]: 1.7 ± 0.6 rating units | Stereotypy Score [1, 11]: 2.9 ± 0.8 rating units | Stereotypy Score [1, 12]: 0 rating units | stereotyped behavior (in words) ([1]; rat, in vivo): little effect on stereotyped gnawing | IC50 [2]: 60 nM | Total Activity ([3]; Table 3, 0.1 mg/kg, s.c.): 3.2 ± 1.1 percent change vs. placebo con | Total Activity ([3]; Table 3, 0.3 mg/kg, s.c.): -5.2 ± 3.1 percent change vs. placebo con | Total Activity ([3]; Table 3, 3.0 mg/kg, s.c.): -50.0 ± 18 percent change vs. placebo con | Total Activity ([3]; Table 3, 5.0 mg/kg, s.c.): -52.1 ± 21 percent change vs. placebo con | Total Activity [3, 10]: 18.8 ± 2.6 percent change | Total Activity [3, 11]: 156.7 ± 26 percent change | Total Activity [3, 12]: 0 percent change | activity counts (arousal induced by 16 μg DA in accumbens) ([4]; 0.3 mg/kg ip): 139 ± 17 activity counts | activity counts (arousal induced by 16 μg DA in accumbens) ([4]; 1.0 mg/kg ip): 80 ± 11 activity counts | activity counts (arousal induced by 16 μg DA in accumbens) ([4]; 3.0 mg/kg ip): 54 ± 10 activity counts | ED50 ([4]; Rattus norvegicus, ip, read-out: ID50, ip, DA 16 μg in accumbens): 0.4 mg/kg | ID50 ([4]; ip, DA 16 μg in accumbens, hydrochloride): 0.45 mg/kg | times more potent than (+)APO as inhibitor of DA in the limbic system ([4]; vs (+)APO): 8 times | IC50 [5]: 66 nM | Locomotion ([6]; (+)NPA 3 mg/kg s.c. after (-)NPA 0.3 mg/kg): 14.8 ± 2.6 percent change | Locomotion ([6]; (+)NPA 3 mg/kg s.c. after (-)NPA 3.0 mg/kg): 8.5 ± 0.6 percent change | Locomotion ([6]; (+)NPA 3 mg/kg s.c., (-)NPA 0): 0 percent change | ID50 to reduce the locomotor activating actions of (-)APO ([6]; s.c., (-)APO 0.3 mg/kg): 0.2 mg/kg | ID50, spontaneous locomotor arousal ([6]; spontaneous activity): 3 mg/kg | effect on locomotor-arousal activity (in words) [6]: dose-dependent inhibition of such activity of the R(-) aporphine | effect on locomotor-arousal activity (in words) ([6]; listed as (+)-N-n-propylnorapomorphine): marked motor-inhibitory effect | Contralateral Head Deviation, Percent of Total [7]: 66.7% of Total | Contralateral Head Deviation, Time [7]: 480 ± 44 s | Catalepsy score ([8]; 0.1 mg/kg): 0.6 ± 0.1 | Catalepsy score ([8]; 0.3 mg/kg): 0.4 ± 0.1 | Catalepsy score ([8]; 3.0 mg/kg): 0.6 ± 0.1 | Catalepsy score ([8]; 5.0 mg/kg): 0.6 ± 0.1 | Vmax (range of two experiments) ([9]; footnote range): 10.2- 13.2 (pmol/assay)/h | Vmax ([9]; mean, substrate of rat liver COMT): 11.7 (pmol/assay)/h

From patent publication US4687773A, “(+)-N-N-propylnorapomorphine and selective limbic activity” (priority 1985, dated 1987)
